Measured values from ChEMBL document CHEMBL1201862, “PubChem BioAssay data set” (2004).
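All cell lines were grown in 96-well plates and treated with compound for 48 hours. GI50 marks 50% less growth.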 Calls of active or inactive are those of the source. Cut-off read from the data, not from the text of the source: active = GI50 up to about 1.1 µM and inactive = higher.

Tests used:
Assay in all cases: growth of human tumour cells (NCI), 48 h
MDA-MB-231 = tested on: MDA-MB-231
IGROV-1 = tested on: IGROV-1
LOX IMVI = tested on: LOX IMVI
OVCAR-5 = tested on: OVCAR-5
KM12 = tested on: KM12
SNB-75 = tested on: SNB-75
HCT-116 = tested on: HCT-116
SK-OV-3 = tested on: SK-OV-3
HCC 2998 = tested on: HCC 2998
SK-MEL-28 = tested on: SK-MEL-28
HOP-62 = tested on: HOP-62
EKVX = tested on: EKVX
ACHN = tested on: ACHN
RPMI-8226 = tested on: RPMI-8226
Hs-578T = tested on: Hs-578T
CAKI-1 = tested on: CAKI-1
SNB-19 = tested on: SNB-19
SF-295 = tested on: SF-295
MDA-N = tested on: MDA-N
CCRF-CEM = tested on: CCRF-CEM
UACC-62 = tested on: UACC-62
OVCAR-8 = tested on: OVCAR-8
Malme-3M = tested on: Malme-3M
SK-MEL-5 = tested on: SK-MEL-5
HL-60 = tested on: HL-60
SN12C = tested on: SN12C
DU-145 = tested on: DU-145
OVCAR-3 = tested on: OVCAR-3
U-251 = tested on: U-251
M14 = tested on: M14
SW-620 = tested on: SW-620
T47D = tested on: T47D
BT-549 = tested on: BT-549
TK-10 = tested on: TK-10
SR = tested on: SR
NCI/ADR-RES = tested on: NCI/ADR-RES
NCI-H460 = tested on: NCI-H460
NCI-H522 = tested on: NCI-H522
UO-31 = tested on: UO-31
MOLT-4 = tested on: MOLT-4
OVCAR-4 = tested on: OVCAR-4
PC-3 = tested on: PC-3
SF-268 = tested on: SF-268
HOP-92 = tested on: HOP-92
SK-MEL-2 = tested on: SK-MEL-2
NCI-H226 = tested on: NCI-H226
HCT-15 = tested on: HCT-15
A498 = tested on: A498
K562 = tested on: K562
A549 = tested on: A549
UACC-257 = tested on: UACC-257
MDA-MB-435 = tested on: MDA-MB-435
MCF7 = tested on: MCF7
786-0 = tested on: 786-0
COLO 205 = tested on: COLO 205
NCI-H23 = tested on: NCI-H23

Measured: GI50

CCOC(=O)CCc1cccc2c1oc1c(CCNC(=O)OCC3c4ccccc4-c4ccccc43)cccc12
> 100 µM: HCT-15
inactive: MDA-MB-231 16.2 µM | IGROV-1 21.3 µM | LOX IMVI 75.9 µM | OVCAR-5 > 100 µM | KM12 > 100 µM | SNB-75 13.1 µM | HCT-116 79.3 µM | SK-OV-3 49 µM | HCC 2998 > 100 µM | SK-MEL-28 > 100 µM | HOP-62 16.2 µM | EKVX > 100 µM | ACHN 44.3 µM | RPMI-8226 > 100 µM | Hs-578T 4.17 µM | CAKI-1 12.9 µM | SNB-19 19.9 µM | SF-295 19.6 µM | MDA-N > 100 µM | CCRF-CEM > 100 µM | UACC-62 16.4 µM | OVCAR-8 24.9 µM | Malme-3M 18.1 µM | SK-MEL-5 29.2 µM | HL-60 > 100 µM | SN12C > 100 µM | DU-145 > 100 µM | OVCAR-3 49 µM | U-251 57.3 µM | M14 38.5 µM | SW-620 > 100 µM | T47D 22.8 µM | BT-549 22.5 µM | TK-10 40.4 µM | SR 22.5 µM | NCI/ADR-RES 58.6 µM | NCI-H460 > 100 µM | NCI-H522 37.9 µM | UO-31 34.9 µM | MOLT-4 > 100 µM | OVCAR-4 > 100 µM | PC-3 35.2 µM | SF-268 25.2 µM | HOP-92 23.1 µM | SK-MEL-2 76.6 µM | NCI-H226 86.7 µM | A498 > 100 µM | K562 > 100 µM | A549 > 100 µM | UACC-257 41.9 µM | MDA-MB-435 > 100 µM | MCF7 36.4 µM | 786-0 37.2 µM | COLO 205 34.5 µM | NCI-H23 25.6 µM
